Test system: Cyclin B1, CDK1, BubR1, Aurora B
Test: Western blot, cell-cycle related proteins in HeLa cells
Format: cell-based, human
Conditions: HeLa, 0.21, 0.42 and 1 μM, 24 h
Experimental: Western blot analysis was used to investigate protein expression levels. It was adopted by Suresh Kumar et al.. Briefly, 1 × 10^5 cells/flask was seeded and treated with MBIC in a dose-dependent manner for 24 h. Cells treated with colchicine and nocodazole served as positive controls. Cells were collected and lysed in RIPA buffer supplemented with a 10 μl protease inhibitor cocktail, sodium orthovanadate, and PMSF (Santa Cruz, USA). The lysate was stored at −80 °C until further use. A 40 μg of sample protein was resolved on 10 % SDS-PAGE and transferred to a polyvinylidene difluoride (PVDF) membrane (Merck Millipore, USA). The membrane was blocked in 5 % BSA for 1 h at room temperature following an overnight incubation at 4 °C with the following primary antibodies: Anti-Cyclin B1, anti-CDK1, anti-BubR1, anti-Aurora B, anti-cleaved PARP, anti-cleaved caspase-3/7/9, anti-Bcl-2 and anti-Bax (1:1000) (Cell Signaling Technology (CST), USA), mouse anti β-actin (1:40000) (Sigma-Aldrich, USA) antibodies.
Membranes were washed with 1X TBS-T prior to incubating with HRP-conjugated goat anti-mouse or anti-rabbit secondary antibodies for 2 h at room temperature. Membranes were washed 3 times with 1X TBS-T to remove excess antibodies before the proteins-antibody complex was detected with Amersham ECL prime western blotting detection reagent (GE Healthcare, USA). Western blot images were quantified and processed by ImageJ software (NIH, USA).

Question: Which “Aurora B protein level (Western blot)” value does the source give for `COC(=O)c1ccc2[nH]c(-c3cc(F)ccc3O)nc2c1` [MBIC, Methyl 2-(5-fluoro-2-hydroxyphenyl)-1H-benzo[d]imidazole-5-carboxylate] here?
Answer: down-regulated

Question: What about the “BubR1 protein level (Western blot)” value of the same compound?
Answer: up-regulated

Question: What about the “CDK1 protein level (Western blot)” value of the same compound?
Answer: up-regulation

Question: And the “Cyclin B1 protein level (Western blot)” value?
Answer: up-regulation

Source: PMC4815073, “Targeting of tubulin polymerization and induction of mitotic blockage by Methyl 2-(5-fluoro-2-hydroxyphenyl)-1H-benzo[d]imidazole-5-carboxylate (MBIC) in human cervical cancer HeLa cell” (Journal of Experimental & Clinical Cancer Research : CR, 2016)
